Format in all cases: in vivo
For test [1], the system named is pigweed (Amaranthus retroflexus). Put plainly: Test A preemergence. The settings on record: Amaranthus retroflexus, pre-emergence, 240 h; for pest or weed control at 125 g/ha: 125 g ai/ha, preemergence, 0 to 100 scale where 0 is no effect and 100 is complete control, read-out: Pigweed plant response rating; for pest or weed control at 500 g/ha: 500 g ai/ha, Preemergence, visual injury vs untreated controls after approximately 10 d, read-out: Pigweed plant response rating (0 to 100 scale where 0 is no effect and 100 is complete control).

Test [2] relates to giant foxtail (Setaria faberii). Put plainly: Test A preemergence. The settings on record: Setaria faberi, pre-emergence, 240 h; for pest or weed control at 125 g/ha: 125 g ai/ha, preemergence, 0 to 100 scale where 0 is no effect and 100 is complete control, read-out: Foxtail, Giant plant response rating; for pest or weed control at 500 g/ha: 500 g ai/ha, Preemergence, visual injury vs untreated controls after approximately 10 d, read-out: Foxtail, Giant plant response rating (0 to 100 scale where 0 is no effect and 100 is complete control). The procedure, abridged:
(§1)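 Ratings of 0 (no effect) to 100 (complete control) come from visual comparison with untreated controls roughly 10 d after treatment. Test chemicals, formulated in a non-phytotoxic solvent mixture with surfactant, were applied either as a preemergence directed soil spray on seeded soil or postemergence to one- to two-leaf plants 2 to 10 cm tall.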

Test [3] concerns ryegrass, Italian (Italian ryegrass, Lolium multiflorum). Put plainly: Test A preemergence. The settings on record: Lolium multiflorum, pre-emergence, 240 h; for pest or weed control at 125 g/ha: 125 g ai/ha, preemergence, 0 to 100 scale where 0 is no effect and 100 is complete control, read-out: Ryegrass, Italian plant response rating; for pest or weed control at 500 g/ha: 500 g ai/ha, Preemergence, visual injury vs untreated controls after approximately 10 d, read-out: Ryegrass, Italian plant response rating (0 to 100 scale where 0 is no effect and 100 is complete control). The procedure, abridged: as §1

Another test concerns Kochia (Kochia scoparia). Put plainly: Test A preemergence. As to conditions: Bassia scoparia, pre-emergence, 240 h; for pest or weed control at 125 g/ha: 125 g ai/ha, preemergence, 0 to 100 scale where 0 is no effect and 100 is complete control, read-out: Kochia plant response rating; for pest or weed control at 500 g/ha: 500 g ai/ha, Preemergence, visual injury vs untreated controls after approximately 10 d, read-out: Kochia plant response rating (0 to 100 scale where 0 is no effect and 100 is complete control). An outline of the steps:
as §1

Test [4] deals with barnyardgrass (Echinochloa crus-galli). The test is described as follows: Test A preemergence. As to conditions: Echinochloa crus-galli, pre-emergence, 240 h; for pest or weed control at 125 g/ha: 125 g ai/ha, preemergence, 0 to 100 scale where 0 is no effect and 100 is complete control, read-out: Barnyardgrass plant response rating; for pest or weed control at 500 g/ha: 500 g ai/ha, Preemergence, visual injury vs untreated controls after approximately 10 d, read-out: Barnyardgrass plant response rating (0 to 100 scale where 0 is no effect and 100 is complete control). The procedure, abridged: as §1

For test [5], the system named is ragweed (common ragweed, Ambrosia elatior). Put plainly: Test A preemergence. As to conditions: Ambrosia artemisiifolia, pre-emergence, 240 h; for pest or weed control at 125 g/ha: 125 g ai/ha, preemergence, 0 to 100 scale where 0 is no effect and 100 is complete control, read-out: Ragweed plant response rating; for pest or weed control at 500 g/ha: 500 g ai/ha, Preemergence, visual injury vs untreated controls after approximately 10 d, read-out: Ragweed plant response rating (0 to 100 scale where 0 is no effect and 100 is complete control). An outline of the steps:
as §1

The next test has as its system corn (Zea mays). Put plainly: Test A postemergence. The settings on record: Zea mays, post-emergence, 240 h, 125 g ai/ha, postemergence, visual injury rating after approximately 10 d; read-out: Corn plant response rating (0 to 100 scale, 0 no effect, 100 complete control). The procedure, abridged:
as §1

Test [6] concerns pigweed (Amaranthus retroflexus). Put plainly: Test A postemergence. As to conditions: Amaranthus retroflexus, post-emergence, 240 h, 125 g ai/ha, postemergence, visual injury rating after approximately 10 d; read-out: Pigweed plant response rating (0 to 100 scale, 0 no effect, 100 complete control). The procedure, abridged: as §1
In test [7] the test system is giant foxtail (Setaria faberii). The test is described as follows: Test A postemergence. As to conditions: Setaria faberi, post-emergence, 240 h, 125 g ai/ha, postemergence, visual injury rating after approximately 10 d; read-out: Foxtail, Giant plant response rating (0 to 100 scale, 0 no effect, 100 complete control). An outline of the steps:
as §1

The test system of test [8] is wheat (Triticum aestivum). The test is described as follows: Test A postemergence. The settings on record: Triticum aestivum, post-emergence, 240 h, 125 g ai/ha, postemergence, visual injury rating after approximately 10 d; read-out: Wheat plant response rating (0 to 100 scale, 0 no effect, 100 complete control). An outline of the steps: as §1
In test [9] the test system is ryegrass, Italian (Italian ryegrass, Lolium multiflorum). Put plainly: Test A postemergence. The settings on record: Lolium multiflorum, post-emergence, 240 h, 125 g ai/ha, postemergence, visual injury rating after approximately 10 d; read-out: Ryegrass, Italian plant response rating (0 to 100 scale, 0 no effect, 100 complete control). An outline of the steps: as §1
Test [10] concerns barnyardgrass (Echinochloa crus-galli). Put plainly: Test A postemergence. As to conditions: Echinochloa crus-galli, post-emergence, 240 h, 125 g ai/ha, postemergence, visual injury rating after approximately 10 d; read-out: Barnyardgrass plant response rating (0 to 100 scale, 0 no effect, 100 complete control). An outline of the steps:
as §1

In test [11] the test system is Galium (catchweed bedstraw, Galium aparine). Put plainly: Test A postemergence. As to conditions: Galium, post-emergence, 240 h, 125 g ai/ha, postemergence, visual injury rating after approximately 10 d; read-out: Galium plant response rating (0 to 100 scale, 0 no effect, 100 complete control). The procedure, abridged:
as §1

In test [12] the test system is ragweed (common ragweed, Ambrosia elatior). Put plainly: Test A postemergence. As to conditions: Ambrosia artemisiifolia, post-emergence, 240 h, 125 g ai/ha, postemergence, visual injury rating after approximately 10 d; read-out: Ragweed plant response rating (0 to 100 scale, 0 no effect, 100 complete control). The procedure, abridged: as §1
The subject of test [13] is blackgrass (Alopecurus myosuroides). The test is described as follows: Test A postemergence. As to conditions: Alopecurus myosuroides, post-emergence, 240 h, 125 g ai/ha, postemergence, visual injury rating after approximately 10 d; read-out: Blackgrass plant response rating (0 to 100 scale, 0 no effect, 100 complete control). An outline of the steps: as §1

For `Cc1cc(F)cc([C@H]2CN(C)C(=O)[C@@H]2C(=O)Nc2ccccc2F)c1` [Compound 850], the pest or weed control at 125 g/ha in test [1] turned out to be 20%; in test [2], 90%; in test [3] it was 70%; in the test on Kochia (Kochia scoparia), 30%; in test [4] it was 90%; in [5] it was 0%. Besides, the pest or weed control at 125 g/ha was determined as 0% in test [6]; 80% in test [7]; 0% in [9]; 90% in [10]; 30% in test [11]; 0% in [12]. The pest or weed control at 125 g/ha in [13] was found to be 0%. Also, the pest or weed control at 500 g/ha in [1] was determined as 30%; in test [2], 90%; in [3], 70%; in the test on Kochia (Kochia scoparia), 70%; in [4], 90%; in test [5] it was 0%. In addition, the plant injury at 125 g/ha came to 30% with corn (Zea mays) and 20% in [8].

Turning to `COc1ccc([C@H]2CN(C)C(=O)[C@@H]2C(=O)Nc2ccccc2F)cc1OC` [Compound 852], the pest or weed control at 125 g/ha in test [1] is 20%; in test [2], 90%; in test [3], 0%; with Kochia (Kochia scoparia), 0%; in test [4], 90%; in test [5] it was 0%. Besides, the pest or weed control at 125 g/ha in test [6] is 0%; in [7], 80%; in [9], 0%; in [10] it was 90%; in test [11] it was 0%; in test [12] it was 0%. Moreover, the pest or weed control at 125 g/ha in test [13] stood at 0%. For the same molecule, the pest or weed control at 500 g/ha in test [1] was 40%; in [2], 90%; in test [3], 30%; in the test on Kochia (Kochia scoparia), 20%; in [4], 90%; in [5], 0%. Moreover, the plant injury at 125 g/ha (in the test with corn (Zea mays); in test [8]) was 0% throughout.

The record behind these values is US12077503B2, “Substituted cyclic amides and their use as herbicides” (FMC CORPORATION, priority 2015, dated 2024).
